Test results from patent publication US8663928B2, “Method for the detection of post-translational modifications” (CIS BIO International, priority 2006, dated 2014).

Experiments:
Akt1 = target: T1, Akt1 (Homo sapiens, UniProt P31749); assay: TR-FRET measurement of the phosphorylation of a generic protein substrate by Akt1 in co-transfected HEK293 cells, with total protein substrate; type: cell-based
T1 construct: expressed in transfected cells; host or cells: HEK293
Protocol: 8000 HEK293 cells (ATCC) are either transfected with increasing quantities of plasmid coding for the substrate alone, or co-transfected with the same quantities of plasmid coding for the substrate and 25 ng of Akt1-pcDNA 3.1 (Invitrogen Corp. Cat No. V790-20) The co-transfection is carried out in the presence of Lipofectamine 2000 (Invitrogen corp. Cat No. 11668-019) and OPTI-MEM medium (Gibco Cat No. 31985).
The cells are then cultured for 48 hours at 37° C. in 25 μl of DMEM medium (Gibco Cat No. 11965-092), to which 10% FCS (Hyclone Cat No. SV30014-03) and 1% antibiotic and antifungal (Gibco Cat No. 15240-062) are added in 384-well plates (Proxiplate 384, Perkin-Elmer Cat No. 6006280).
The cells are lysed in 50 mM Hepes buffer, pH7, containing 0.1% BSA, 20 mM EDTA, 0.8 M potassium fluoride and 2% TRITON X-100® (octylphenol ethyelene oxide condensate)). This same buffer contains 1.8 ng of phosphospecific antibodies (STK antibody, Upstate Cat No. 35-002) conjugated with the donor (europium cryptate) and 40 ng of anti-FLAG conjugated with the acceptor (cross-linked allophycocyanin, XL 665, CIS bio international Cat No. 61 FG2XLA).
The plate is incubated for 1 hour at ambient temperature before time-resolved reading.
The FRET signals are measured on an Acquest 384 fluorimeter (Molecular Device) in TR-FRET mode at 620 nm (emission wavelength of rare earth cryptate) and 665 nm (emission wavelength of allophycocyanin) after excitation by a flash lamp with a bandwidth comprised between 330 and 380 nm. The ratio between the fluorescence emitted at 665 nm (fluorescence of the acceptor) and the fluorescence emitted at 620 nm (fluorescence of the donor) (Ratio 665/620) represents the FRET occurring between the donor (europium cryptate) and the acceptor (Allophycocyanin). […]
The cells are co-transfected and cultured as described in Example 1. […] The cells are then lysed and the phosphorylated protein substrate detected as described in Example 1.
In parallel, in a second well, cells are treated in identical manner. After lysis, the total quantity of protein substrate is measured using an anti-c-myc antibody coupled with europium cryptate (2.9 ng/well) (CIS bio international Cat No. 61MYCKLA) and an anti-FLAG antibody coupled with allophycocyanin (40 ng/well).
The cells are co-transfected with a plasmid coding for the protein substrate labelled by the c-myc and flag tags and with a plasmid coding for Akt1, as described in Example 1. […] In this case the lysate is first placed in the presence of a phosphospecific antibody, coupled with tris-bipyridine europium cryptate (CIS bio international, formula below), and an anti-FLAG antibody coupled with allophycocyanin (in the same quantities as those described in Example 1). […]

Cam kinase II = target: T2, Cam kinase II (Homo sapiens, UniProt Q13557); assay: TR-FRET measurement of the phosphorylation of a generic protein substrate by Cam kinase II in co-transfected HEK293 cells; type: cell-based; settings: FIG. 2; ionomycin 1 μM, 5 min; HEK293 co-transfected with substrate plasmid and CamKII delta
T2 construct: expressed in transfected cells; host or cells: HEK293
Protocol: 8000 cells HEK293 are either transfected with increasing quantities of plasmid coding for the substrate alone (Identical to Example 1), or co-transfected with the same quantities of plasmid coding for the substrate and 25 ng of CamKII 6-pcDNA 3.1 (plasmid coding for Cam kinase II). The transfection is carried out as described in Example 1.
The cells are then cultured for 48 hours at 37° C. in DMEM medium, comprising 10% fcetal calf serum and 1% antibiotic and antifungal, then for 16 hours in the same medium without serum.
The cells are stimulated for 5 min in the presence of ionomycin 1 μM (Sigma), and lysed as described above.
The phosphorylation of the protein substrate is detected as described in Example 1.

T1 sequence (P31749 whole entry, species assumed): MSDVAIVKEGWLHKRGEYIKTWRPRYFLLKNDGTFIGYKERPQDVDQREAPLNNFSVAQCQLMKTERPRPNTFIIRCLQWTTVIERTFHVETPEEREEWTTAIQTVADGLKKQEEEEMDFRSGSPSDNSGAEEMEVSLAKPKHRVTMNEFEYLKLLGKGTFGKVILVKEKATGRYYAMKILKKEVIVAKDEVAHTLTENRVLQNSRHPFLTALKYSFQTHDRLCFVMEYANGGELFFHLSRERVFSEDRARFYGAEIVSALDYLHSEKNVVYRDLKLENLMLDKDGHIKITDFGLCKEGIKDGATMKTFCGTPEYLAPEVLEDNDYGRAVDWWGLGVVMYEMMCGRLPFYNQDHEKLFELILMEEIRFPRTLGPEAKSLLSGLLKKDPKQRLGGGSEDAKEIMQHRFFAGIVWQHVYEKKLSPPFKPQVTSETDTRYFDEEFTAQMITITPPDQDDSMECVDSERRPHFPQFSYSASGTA
T2 sequence (Q13557 whole entry): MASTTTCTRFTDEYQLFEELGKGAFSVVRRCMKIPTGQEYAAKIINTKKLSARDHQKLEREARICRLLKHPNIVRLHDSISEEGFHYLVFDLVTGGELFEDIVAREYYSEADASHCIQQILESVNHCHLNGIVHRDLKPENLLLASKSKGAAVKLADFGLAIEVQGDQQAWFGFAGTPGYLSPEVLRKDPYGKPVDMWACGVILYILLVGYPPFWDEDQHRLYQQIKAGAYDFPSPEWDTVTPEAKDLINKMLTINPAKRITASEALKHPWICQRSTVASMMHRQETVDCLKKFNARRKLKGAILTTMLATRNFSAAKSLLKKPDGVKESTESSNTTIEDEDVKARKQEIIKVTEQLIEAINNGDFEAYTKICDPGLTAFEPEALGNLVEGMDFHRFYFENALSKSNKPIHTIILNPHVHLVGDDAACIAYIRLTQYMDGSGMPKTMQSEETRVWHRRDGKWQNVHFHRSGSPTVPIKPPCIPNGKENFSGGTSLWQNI

`CN[C@@H]1C[C@H]2O[C@@](C)([C@@H]1OC)n1c3ccccc3c3c4c(c5c6ccccc6n2c5c31)C(=O)NC4` [staurosporine] was tested, and the “signal corresponding to the phosphorylated protein substrate” value (Akt1; FIG. 3, HEK293 co-transfected with substrate plasmid and Akt1, 1 hour incubation with increasing concentrations, separate wells) was “reduces with increasing concentrations”, the “signal corresponding to the total protein substrate” value (Akt1; FIG. 3, anti-c-myc cryptate/anti-FLAG allophycocyanin, second well, increasing concentrations) was “remains constant whatever the dose of inhibitor” and the “signal corresponding to the phosphorylated protein substrate (not standardized)” value (Akt1; FIG. 4, 0.2 nM, 20 nM, 2 μM, separate wells or single well with FRET suppressing agent) was “sensitive to staurosporine only in the case where it is added to the measurement medium at high concentrations (2 μM)”. For the same molecule, the “ratio of phosphorylated protein substrate: total protein substrate” value (Akt1; FIG. 6, signal standardized by total protein substrate signal, 0.2 nM, 20 nM, 2 μM) was “inhibition of the phosphorylation of the protein substrate”.
In the case of `C[C@H](CCC(=O)O)C[C@H](C)C[C@H](C)C(=O)/C=C(\O)[C@H](C)C[C@H](C)C/C=C/[C@@H](C)[C@@H](O)[C@@H](C)[C@@H](O)C[C@@H]1CC[C@@](C)([C@H]2CC[C@@](C)([C@@H](C)O)O2)O1` [ionomycin], the “signal of phosphorylated protein substrate after stimulation” value (Cam kinase II) is reported as “much greater than in its absence”.
